Measurements published in US6589992B2, “Inhibiting collagen-induced platelet aggregation” (Parker Hughes Institute, priority 1999, dated 2003).
“Also recorded” adds a separate entry of the source.

Experiments:
platelets = assay: Inositol-1,4,5-trisphosphate production in collagen-stimulated platelets; assay type: cell-based, human
Description: Collagen stimulation was terminated by the addition of ice-cold 20% perchloric acid. Inositol-1,4,5,-trisphosphate (Ins-1,4,5-P3) levels were measured by using a D-myo-[^3H]inositol-1,4,5-trisphosphate assay system purchased from Amersham (Arlington Heights, Ill.), as reported (Uckun et al., 1991) (FIG. 2B). This highly sensitive assay is based on the competition between nonradiolabeled Ins-1,4,5-P3 in the cellular extracts and a fixed quantity of a high specific activity [^3H] Ins-1,4,5-P3 tracer for a limited number of binding sites on a Ins-1,4,5-P3-specific and sensitive bovine adrenal binding protein (Uckun et al., 1991).
Platelets were stimulated at 37 degrees C. with 2 μg/ml collagen for various times. Activation was stopped by the addition of ice cold 20% perchloric acid. The amount of inositol 1,4,5-triphosphate production was measured using a detection kit from Amersham.

mice = assay: Platelet plug formation and clotting time after retro-orbital venupuncture in mice; assay type: in vivo; details: for clotting time % Control / Mean Clotting Time: C57BL/6 mice; for Mean Clotting Time: n = 3
Description: Mice were placed in a tube holder and tail bleeding was performed with a 2 mm cut from the protruding tail tip, the tail was placed vertically into 10 mL normal saline in a 37° C. water bath and bleeding times determined as previously described (Teng et al., 1997). Platelet plug formation and clotting times on the eye after retro-orbital venupuncture were evaluated using published methods (Sheu et al., 1995).
The blood of XID mice clotted approximately two minutes later than the CBA control mice. Following this pattern, blood from chronically treated mice also clotted two minutes later than control. […]

TEC kinase = target: T1, TEC kinase (Homo sapiens, UniProt P42680); assay: TEC immune complex kinase assay from collagen-stimulated platelets; assay type: cell-based
T1 sequence (P42680 1-631): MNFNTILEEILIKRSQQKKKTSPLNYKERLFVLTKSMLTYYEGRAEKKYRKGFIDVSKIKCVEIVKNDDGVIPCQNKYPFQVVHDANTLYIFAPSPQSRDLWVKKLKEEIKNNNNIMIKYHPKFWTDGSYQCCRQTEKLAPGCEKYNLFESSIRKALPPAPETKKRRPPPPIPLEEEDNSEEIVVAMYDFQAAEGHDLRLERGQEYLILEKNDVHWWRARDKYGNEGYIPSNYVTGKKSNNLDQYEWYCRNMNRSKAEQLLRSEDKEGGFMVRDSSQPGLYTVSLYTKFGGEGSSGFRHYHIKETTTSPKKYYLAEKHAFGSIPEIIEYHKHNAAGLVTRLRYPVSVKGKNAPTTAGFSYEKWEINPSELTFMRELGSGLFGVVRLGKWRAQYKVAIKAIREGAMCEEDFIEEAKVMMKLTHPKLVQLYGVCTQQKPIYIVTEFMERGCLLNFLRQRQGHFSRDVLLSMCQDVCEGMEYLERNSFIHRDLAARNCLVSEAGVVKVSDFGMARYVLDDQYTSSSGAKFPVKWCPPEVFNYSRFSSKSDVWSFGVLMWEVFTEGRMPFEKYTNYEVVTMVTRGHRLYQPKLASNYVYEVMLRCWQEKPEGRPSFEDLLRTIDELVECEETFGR
Description: Platelets were isolated from platelet rich plasma (PRP) purchased from the Memorial Blood Bank (Minneapolis, Minn.) as previously described (Asselin et al. 1997) and used at a concentration of 3×10^9 cells/mL in a modified Tyrode's buffer (137 mM NaCl, 2.7 mM KCl, 0.9 mM MgCl2, 5.5 mM glucose, 3.3 mM NaH2PO4, 3.8 mM Hepes, pH 7.4). […] Platelets were then stimulated at 37° C. with 2 μg/mL (or 10 μg/mL) collagen or 0.1 U/mL thrombin (Chronolog Inc., Philadelphia, Pa.). Stimulation was stopped and platelets were lysed at the indicated time points by adding ice cold 3x Triton X-100 lysis buffer (150 mM NaCl, 15 mM EGTA, 3% Triton X-100, 3% Sodium deoxycholate, 0.3% SDS, 3 mM PMSF, 3 mM Na3 VO4, 60 μg/mL leupeptin, 60 μg/mL aprotinin, 50 mM Tris-HCl pH 7.4) and incubating for 1 hour on ice. […]
(§1) For each drug concentration, a BTK/TEC kinase activity index as determined by comparing the ratios of the kinase activity in phosphorimager units (PIU) and density of the protein bands in densitometric scanning units (DSU) to those of the baseline sample and using the formula: Activity Index=[PIU of kinase band/DSU of BTK/TEC protein band]test sample: [PIU of kinase band/DSU of BTK/TEC protein band]baseline control sample (FIGS. 1A-1D).

[1] = Pharmacokinetics in mice (HPLC plasma levels); details: mouse, in vivo
Description: All collected blood samples were heparinized and centrifuged at 7,000xg for 5 minutes in a microcentrifuge to obtain plasma. The plasma samples were stored at −20° C. until analysis.
The analytical column was equilibrated and eluted under isocratic conditions utilizing a flow rate of 1.0 mL/min at ambient temperature. The wavelength of detection was set at 294 nm. Peak width, response time, and slit were set at >0.03 min, 0.55 sec, and […], respectively. […] Following centrifugation at 300xg for 5 minutes, the supernatant was used for HPLC analysis using a system comprised of a Hewlett Packard (HP) series 1100 instrument equipped with an automated electronic degasser, a quaternary pump, an autosampler, an automatic thermostatic column compartment, diode array detector and a computer with a Chemstation software program for data analysis (Chen and Uckun, 1999; Malaviya et al., 2000). All extraction procedures were carried out at room temperature.
The unweighed linear regression analysis of the standard curves was performed by using the CA-Cricket Graph III computer program, Version 1.0 (Computer Association, Inc., Islandia, N.Y.). […] Pharmacokinetic modeling and pharmacokinetic parameter estimations were carried out using the pharmacokinetics software, WinNonlin Program, Professional version 3.0 (Pharsight Inc., Mountain view, Calif.) (Chen and Uckun, 1999; Malaviya et al. 2000; Uckun et al., 1999).
The elimination half-life was estimated by linear regression analysis of the terminal phase of the plasma concentration time profile. The area under the concentration time curve (AUC) was calculated by the linear trapezoidal rule between the first (0 hours) and last sampling time plus C/k, where C is the concentration at the last sampling time and k is the elimination rate constant. The systemic clearance (CL) was determined by dividing the does by the AUC (Chen and Uckun, 199; Malaviya et al., 2000; Uckun et al., 1999).
A one-compartment, first order pharmacokinetic model was fit into the pharmacokinetic data. The numbers represent the average values estimated from the composite plasma concentration-time curve for pooled data. The mean±SEM values are indicated in parentheses. The values for the apparent volume of distribution (Vc) and systemic clearance (CL) were not corrected for bioavailability. t½=terminal elimination half-life; tmax=the time required to reach the maximum plasma drug concentration after i.p. administration.

SRC = target: T2, SRC (Homo sapiens, UniProt P12931); assay: SRC activity in platelets; assay type: cell-based; details: data not shown
T2 construct: endogenous in cells; host or cells: platelets
T2 sequence (P12931 whole entry): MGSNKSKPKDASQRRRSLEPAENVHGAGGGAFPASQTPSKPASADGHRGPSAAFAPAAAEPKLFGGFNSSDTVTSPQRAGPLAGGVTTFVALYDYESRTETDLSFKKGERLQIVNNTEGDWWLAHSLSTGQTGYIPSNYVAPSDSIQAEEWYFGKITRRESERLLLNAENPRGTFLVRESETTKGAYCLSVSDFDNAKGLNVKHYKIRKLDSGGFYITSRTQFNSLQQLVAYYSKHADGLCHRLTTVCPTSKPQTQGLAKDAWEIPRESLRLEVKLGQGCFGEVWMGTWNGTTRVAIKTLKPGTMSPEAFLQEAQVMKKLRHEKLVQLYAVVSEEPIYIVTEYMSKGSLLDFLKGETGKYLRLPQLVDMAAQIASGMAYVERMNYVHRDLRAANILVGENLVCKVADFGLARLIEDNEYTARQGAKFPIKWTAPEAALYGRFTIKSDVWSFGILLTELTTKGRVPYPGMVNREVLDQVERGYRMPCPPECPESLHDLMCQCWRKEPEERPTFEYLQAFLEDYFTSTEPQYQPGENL

BTK = BTK (Homo sapiens, UniProt Q06187); assay: BTK immune complex kinase assay from collagen-stimulated platelets; details: 100 μM
Chain of BTK (Q06187 whole entry): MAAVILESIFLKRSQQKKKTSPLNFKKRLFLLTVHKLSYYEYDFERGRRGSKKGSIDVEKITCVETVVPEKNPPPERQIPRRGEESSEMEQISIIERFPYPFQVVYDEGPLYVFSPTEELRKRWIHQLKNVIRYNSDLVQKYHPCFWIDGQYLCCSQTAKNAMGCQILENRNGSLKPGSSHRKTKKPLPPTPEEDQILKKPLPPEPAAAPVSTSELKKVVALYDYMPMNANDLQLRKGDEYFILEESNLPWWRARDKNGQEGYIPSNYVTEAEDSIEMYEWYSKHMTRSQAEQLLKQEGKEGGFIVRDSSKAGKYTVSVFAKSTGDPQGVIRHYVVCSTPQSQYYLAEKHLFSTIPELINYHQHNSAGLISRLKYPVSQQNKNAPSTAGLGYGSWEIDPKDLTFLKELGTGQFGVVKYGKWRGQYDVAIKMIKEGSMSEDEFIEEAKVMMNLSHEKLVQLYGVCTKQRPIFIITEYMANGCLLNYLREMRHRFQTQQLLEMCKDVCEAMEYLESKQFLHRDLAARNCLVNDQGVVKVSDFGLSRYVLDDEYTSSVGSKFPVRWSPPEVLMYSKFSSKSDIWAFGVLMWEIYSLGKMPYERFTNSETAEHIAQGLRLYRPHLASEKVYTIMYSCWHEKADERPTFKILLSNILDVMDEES
Description: Platelets were isolated from platelet rich plasma (PRP) purchased from the Memorial Blood Bank (Minneapolis, Minn.) as previously described (Asselin et al. 1997) and used at a concentration of 3×10^9 cells/mL in a modified Tyrode's buffer (137 mM NaCl, 2.7 mM KCl, 0.9 mM MgCl2, 5.5 mM glucose, 3.3 mM NaH2PO4, 3.8 mM Hepes, pH 7.4). […] Platelets were then stimulated at 37° C. with 2 μg/mL (or 10 μg/mL) collagen or 0.1 U/mL thrombin (Chronolog Inc., Philadelphia, Pa.). Stimulation was stopped and platelets were lysed at the indicated time points by adding ice cold 3x Triton X-100 lysis buffer (150 mM NaCl, 15 mM EGTA, 3% Triton X-100, 3% Sodium deoxycholate, 0.3% SDS, 3 mM PMSF, 3 mM Na3 VO4, 60 μg/mL leupeptin, 60 μg/mL aprotinin, 50 mM Tris-HCl pH 7.4) and incubating for 1 hour on ice. Following removal of the membranous fraction by centrifugation (12,000xg, 30 min) the samples were subjected to immunoprecipitation utilizing antibodies raised against BTK (Santa Cruz Biotechnologies, Santa Cruz, Calif.), TEC (Upstate Biotechnology, Lake Placid, N.Y.) and PLCγ2 (Santa Cruz Biotechnologies, Santa Cruz, Calif.) (Vassilev et al., 1999). Immunoprecipitations, immune-complex protein kinase assays, and immunoblotting on PVDF membranes (Milipore, Bedford, Mass.) using the ECL chemiluminescence detection system (Amersham Life Sciences, Arlington Heights, Ill.) were conducted as described previously (Mahajan et al., 1999; Sudbeck et al., 1999; Uckun et al., 1996a; Uckun et al., 1996b).
For immunoblotting, antibodies against phosphotyrosine (Transduction Labs, Lexington, Ky.), BTK (Santa Cruz Biotechnologies, Santa Cruz, Calif.), TEC (Upstate Biotechnology, Lake Placid, N.Y.) and PLCγ2 (Santa Cruz Biotechnologies, Santa Cruz, Calif.) were used. Horse radish peroxidase-conjugated sheep anti-mouse, donkey anti-rabbit secondary antibodies were purchased from Transduction Laboratories (Lexington, Ky.). Horse radish peroxidase-conjugated sheep anti-goat antibodies were purchased from Santa Cruz (Santa Cruz, Calif.). Following electrophoresis, kinase gels were dried onto Whatman 3M filter paper and subjected to phosphoimaging on a Molecular Imager (Bio-Rad, Hercules, Calif.) as well as autoradiography on film. Similarly, all chemiluminescent BTK/TEC Western blots were subjected to three dimensional densitometric scanning using the Molecular Imager and Imaging Densitometer using the Molecular Analyst/Macintosh version 2.1 software following the specifications of the manufacturer (Bio-Rad).
Antibodies raised against BTK and TEC utilized for immunoprecipitations and Western blot analysis were purchased from Santa Cruz (Santa Cruz, Calif.).
as §1
The samples were subjected to immunoprecipitation utilizing antibodies raised against BTK. The BTK immune complexes were subjected to immune kinase assays.

PLCγ2 = assay: Collagen-induced PLCγ2 tyrosine phosphorylation in platelets (immunoprecipitation/Western blot); assay type: cell-based, human; details: 100 μM, 30 min pretreatment; 2 μg/mL collagen
Description: The membrane was stripped and re-probed with antibodies raised against PLCγ2. An increase in the level of phosphorylated PLCγ2 was seen between 30 and 45 seconds following collagen stimulation.

[2] = 40 mg/kg, after retroorbital venupuncture
[3] = 30 min, 0 seconds after 2 μg/ml collagen
[4] = 30 min, 90 seconds after 2 μg/ml collagen

Compound: C/C(O)=C(\C#N)C(=O)Nc1cc(Br)ccc1Br [LFM-A13, α-cyano-β-hydroxy-β-methyl-N-(2,5-dibromophenyl)-propenamide]
- % control inositol 1,4,5-triphosphate production (peak response) (platelets; 100 μM LFM-A13 alone, no collagen): 75 % control
- % control inositol 1,4,5-triphosphate production (peak response) (platelets; 100 μM LFM-A13 and 2 μg/ml collagen): 75 % control
- Ins-1,4,5-P3 levels between 30 and 60 seconds after collagen stimulation (platelets; 100 μM pretreatment): remained at baseline
- collagen-stimulated PI-PLC activity (platelets; 100 μM, 30 min, 2 μg/ml collagen): inhibited collagen-stimulated PI-PLC activity
- Ins-1,4,5-P3 levels (platelets; 100 μM, 30 min pretreatment, 30 seconds after collagen stimulation): 17.8±1.4 pmols/10^9 platelets
- inhibition at 100 µM (platelets; Homo sapiens, Platelet, read-out: % inhibition of inositol 1,4,5-triphosphate production): 100%
- clotting (eye clot) time (mice; [2]): 2.6 ± 0.4 min
- local platelet plug (eye plug) formation time (mice; [2]): 45 ± 4 s
- clotting time % Control (mice; 25 mg/kg chronic 36 days): 231%
- Mean Clotting Time (mice; 25 mg/kg chronic 36 days): 3.7 min
- clotting time % Control (mice; 40 mg/kg acute 1 hour): 164%
- Mean Clotting Time (mice; 40 mg/kg acute 1 hour): 2.6 min
- collagen-induced stimulation of TEC kinase in platelets (TEC kinase; collagen-stimulated platelets): prevented collagen-induced stimulation of TEC kinase
- baseline activity of TEC in unstimulated platelets (TEC kinase; unstimulated platelets): did not reduce the baseline activity of TEC
- AUC ([1]; ip, 10 mg/kg): 66.3 ± 3 µM·h
- Cmax ([1]; ip, 10 mg/kg): 94 ± 8 µM
- AUC ([1]; ip, 20 mg/kg): 183 ± 14 µM·h
- Cmax ([1]; ip, 20 mg/kg): 243 ± 16 µM
- AUC ([1]; ip, 25 mg/kg): 308 ± 31 µM·h
- Cmax ([1]; ip, 25 mg/kg): 383 ± 35 µM
- AUC ([1]; ip, 40 mg/kg): 653 ± 47 µM·h
- Cmax ([1]; ip, 40 mg/kg): 640 ± 44 µM
- AUC ([1]; ip, 50 mg/kg): 1020 ± 31 µM·h
- Cmax ([1]; ip, 50 mg/kg): 940 ± 16 µM
- AUC ([1]; iv, 25 mg/kg): 384 ± 30 µM·h
- Cmax ([1]; iv, 25 mg/kg): 731 ± 22 µM
- baseline and collagen-induced SRC activity in platelets (SRC): did not inhibit the baseline activity of SYK or SRC or prevent collagen-induced SYK and SRC activation
- DSU (density of BTK protein band, densitometric scanning units) (BTK; [3]): 1236
- PIU (BTK autophosphorylation, phosphorimager units) (BTK; [3]): 78
- BTK kinase activity in collagen-stimulated platelets (BTK; 30 min, 2 μg/mL collagen): completely prevented collagen-induced stimulation of BTK; also recorded: significantly inhibited BTK kinase activity
- DSU (density of BTK protein band, densitometric scanning units) (BTK; [4]): 1432
- PIU (BTK autophosphorylation, phosphorimager units) (BTK; [4]): 68
- reduction of baseline BTK activity in platelets (BTK; 30 min at 37° C.): > 90%
- collagen-induced tyrosine phosphorylation of PLCγ2 (PLCγ2): no enhanced tyrosine phosphorylation of PLCγ2 was detected; also recorded: No phosphorylation of PLCγ2 was noted
